pIC50: −log10 of the molar value.
Tests used:
Type in all cases: biochemical
Flt1 = molecular target: T1, Flt1 (Homo sapiens, UniProt P17948); assay: AlphaScreen kinase assay, Flt1; settings: read-out: IC50, activity toward kinase Flt1
T1 construct: P1826.pETN6 BI-PTP FLT1 M799-D1165-X WT; His6 (N); made in house; host or cells: E. coli (PTP1B co-expressed)
T1 sequence (P17948 with tags, fused parts or gaps): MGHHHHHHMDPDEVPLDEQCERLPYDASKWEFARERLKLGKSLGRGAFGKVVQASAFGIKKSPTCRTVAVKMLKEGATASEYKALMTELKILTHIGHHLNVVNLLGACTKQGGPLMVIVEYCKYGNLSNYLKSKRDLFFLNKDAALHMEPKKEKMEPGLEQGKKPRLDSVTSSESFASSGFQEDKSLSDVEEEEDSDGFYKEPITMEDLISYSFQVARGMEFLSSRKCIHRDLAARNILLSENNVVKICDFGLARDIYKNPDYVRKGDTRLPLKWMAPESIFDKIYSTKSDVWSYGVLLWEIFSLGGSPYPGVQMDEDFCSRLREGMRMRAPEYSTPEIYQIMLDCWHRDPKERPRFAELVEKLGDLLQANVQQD

Abl = molecular target: T2, Abl (Homo sapiens, UniProt P00519); assay: AlphaScreen kinase assay, Abl; settings: read-out: activity toward kinase Abl, IC50
T2 construct: P1121. pET-SPEC BI-PTP Abl G227-V515-X; His6 (N); made in house; host or cells: E. coli (PTP1B co-expressed)
T2 sequence (P00519 with tags, fused parts or gaps): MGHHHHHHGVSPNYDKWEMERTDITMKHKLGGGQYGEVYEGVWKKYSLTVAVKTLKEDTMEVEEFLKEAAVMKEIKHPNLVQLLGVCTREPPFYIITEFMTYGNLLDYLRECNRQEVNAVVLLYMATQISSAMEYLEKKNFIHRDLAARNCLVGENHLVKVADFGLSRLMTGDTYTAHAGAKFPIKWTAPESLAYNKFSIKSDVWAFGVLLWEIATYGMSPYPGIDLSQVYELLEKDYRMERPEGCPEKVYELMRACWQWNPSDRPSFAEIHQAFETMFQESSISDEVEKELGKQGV
How it was run: (§1)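 Biotinylated peptide substrate is phosphorylated by kinase; anti-phosphopeptide antibody on acceptor beads and streptavidin donor beads bring emission when substrate is phosphorylated. Inhibition lowers acceptor signal. Compounds from 20 mM DMSO stock tested as 8-point 1:3 serial dilutions.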

Jnk1 = molecular target: T3, Jnk1 (Homo sapiens, UniProt P45983); assay: AlphaScreen kinase assay, Jnk1; settings: read-out: IC50, activity toward kinase Jnk1
T3 construct: purchased Upstate Biotechnology

Jnk3 = molecular target: T4, Jnk3 (Homo sapiens, UniProt P53779); assay: AlphaScreen kinase assay, Jnk3; settings: read-out: IC50, activity toward kinase Jnk3
T4 construct: purchased Upstate Biotechnology

c-Raf-1 = molecular target: T5, c-Raf-1 (Homo sapiens, UniProt P04049); assay: AlphaScreen kinase assay, c-Raf-1; settings: read-out: IC50, activity toward kinase c-Raf-1
T5 construct: purchased Upstate Biotechnology

Met = molecular target: T6, Met (Homo sapiens, UniProt P08581); assay: AlphaScreen kinase assay, Met; settings: read-out: IC50, activity toward kinase Met
T6 construct: P1818.pETN6 BI-PTP MET G1056-G1364-X WT; His6 (N); made in house; host or cells: E. coli (PTP1B co-expressed)
How it was run: as §1

T4 sequence (P53779 whole entry): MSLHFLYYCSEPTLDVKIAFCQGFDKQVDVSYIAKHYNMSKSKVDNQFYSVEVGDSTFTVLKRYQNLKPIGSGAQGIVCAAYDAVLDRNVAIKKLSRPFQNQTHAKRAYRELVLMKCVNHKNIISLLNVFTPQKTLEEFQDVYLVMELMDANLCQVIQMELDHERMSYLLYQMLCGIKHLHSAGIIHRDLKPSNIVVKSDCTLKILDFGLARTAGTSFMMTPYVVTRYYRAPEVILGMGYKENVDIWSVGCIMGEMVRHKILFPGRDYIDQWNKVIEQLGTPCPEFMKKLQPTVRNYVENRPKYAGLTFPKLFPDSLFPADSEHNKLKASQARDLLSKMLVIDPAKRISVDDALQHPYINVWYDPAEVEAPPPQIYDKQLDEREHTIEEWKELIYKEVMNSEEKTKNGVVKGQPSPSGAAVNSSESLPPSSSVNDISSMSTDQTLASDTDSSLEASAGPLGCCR
T3 sequence (P45983 whole entry): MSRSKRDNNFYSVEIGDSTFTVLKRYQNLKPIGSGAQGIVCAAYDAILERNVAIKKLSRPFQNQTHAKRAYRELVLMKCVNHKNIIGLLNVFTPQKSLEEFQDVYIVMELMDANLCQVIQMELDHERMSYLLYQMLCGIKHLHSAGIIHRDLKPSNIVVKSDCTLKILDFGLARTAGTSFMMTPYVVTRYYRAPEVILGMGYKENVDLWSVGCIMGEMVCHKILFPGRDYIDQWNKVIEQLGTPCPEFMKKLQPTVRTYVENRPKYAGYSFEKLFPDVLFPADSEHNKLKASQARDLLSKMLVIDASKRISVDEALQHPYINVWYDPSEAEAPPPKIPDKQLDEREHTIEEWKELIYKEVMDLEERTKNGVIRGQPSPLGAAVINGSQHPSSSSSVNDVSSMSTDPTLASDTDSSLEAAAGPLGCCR
T6 sequence (P08581 with tags, fused parts or gaps): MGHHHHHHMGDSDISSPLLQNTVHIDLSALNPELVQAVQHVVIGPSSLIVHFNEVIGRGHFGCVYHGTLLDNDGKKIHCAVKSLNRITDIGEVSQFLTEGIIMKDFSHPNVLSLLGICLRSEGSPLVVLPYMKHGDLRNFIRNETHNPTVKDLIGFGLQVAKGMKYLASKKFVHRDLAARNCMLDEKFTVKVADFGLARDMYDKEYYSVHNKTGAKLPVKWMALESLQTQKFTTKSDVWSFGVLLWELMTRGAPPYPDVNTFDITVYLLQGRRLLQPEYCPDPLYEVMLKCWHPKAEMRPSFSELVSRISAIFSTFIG
T5 sequence (P04049 whole entry): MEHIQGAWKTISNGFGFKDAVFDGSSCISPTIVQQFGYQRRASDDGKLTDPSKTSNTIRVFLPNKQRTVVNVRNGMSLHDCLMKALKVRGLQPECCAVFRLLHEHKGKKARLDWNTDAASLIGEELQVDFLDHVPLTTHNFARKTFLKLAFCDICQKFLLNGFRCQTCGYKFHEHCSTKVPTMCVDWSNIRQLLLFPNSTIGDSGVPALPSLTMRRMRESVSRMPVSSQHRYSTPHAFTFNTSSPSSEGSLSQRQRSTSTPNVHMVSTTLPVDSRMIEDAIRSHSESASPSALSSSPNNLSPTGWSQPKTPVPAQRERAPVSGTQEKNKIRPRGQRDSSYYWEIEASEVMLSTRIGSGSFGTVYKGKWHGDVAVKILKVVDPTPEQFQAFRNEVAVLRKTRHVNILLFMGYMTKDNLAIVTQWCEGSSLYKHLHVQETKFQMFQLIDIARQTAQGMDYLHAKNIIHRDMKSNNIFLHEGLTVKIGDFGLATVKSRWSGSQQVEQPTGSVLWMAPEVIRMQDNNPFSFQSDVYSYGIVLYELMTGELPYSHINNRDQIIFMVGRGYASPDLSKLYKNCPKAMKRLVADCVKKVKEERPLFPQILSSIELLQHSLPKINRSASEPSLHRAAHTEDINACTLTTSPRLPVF

| Structure (SMILES) | pIC50 (Flt1) | pIC50 (Abl) | pIC50 (Jnk1) | pIC50 (Jnk3) | pIC50 (c-Raf-1) | pIC50 (Met) |
| --- | --- | --- | --- | --- | --- | --- |
| O=C(c1cccc(O)c1)c1c[nH]c2nccc(Cl)c12 [Compound P-0012] | ≥ 5.00 | ≥ 5.00 |  |  |  |  |
| CCCS(=O)(=O)Nc1ccc(F)c(C(=O)c2c[nH]c3ncc(-c4ccccc4)cc23)c1F [Compound P-0636, Propane-1-sulfonic acid [2,4-difluoro-3-(5-phenyl-1H-pyrrolo[2,3-b]pyridine-3-carbonyl)-phenyl]-amide] | ≥ 5.00 |  | ≥ 5.00 | ≥ 5.00 | ≥ 5.00 |  |
| CCCS(=O)(=O)Nc1ccc(F)c(C(=O)c2c[nH]c3ncc(-c4cccnc4)cc23)c1F [Compound P-0088, Propane-1-sulfonic acid [2,4-difluoro-3-(5-pyridin-3-yl-1H-pyrrolo[2,3-b]pyridine-3-carbonyl)-phenyl]-amide] | ≥ 5.00 |  | ≥ 5.00 | ≥ 5.00 | ≥ 5.00 |  |
| O=C(c1cccc(O)c1F)c1c[nH]c2ncc(Br)cc12 [Compound P-0067, (5-bromo-1H-pyrrolo[2,3-b]pyridin-3-yl)-(2-fluoro-3-hydroxy-phenyl)-methanone] | ≥ 5.00 |  |  |  |  |  |
| O=C(c1cccc(O)c1)c1c[nH]c2ncc(-c3cccs3)cc12 [Compound P-0196] | ≥ 5.00 | ≥ 5.00 | ≥ 5.00 | ≥ 5.00 |  |  |
| CCCCNC(=O)Nc1ccc(F)c(C(=O)c2c[nH]c3ncc(-c4cccnc4)cc23)c1F [Compound P-1318, 1-Butyl-3-[2,4-difluoro-3-(5-pyridin-3-yl-1H-pyrrolo[2,3-b]pyridine-3-carbonyl)-phenyl]-urea] | ≥ 5.00 | ≥ 5.00 | ≥ 5.00 | ≥ 5.00 | ≥ 5.00 |  |
| Cc1ccc(F)cc1C(=O)c1c[nH]c2ncc(-c3cccc(N)c3)cc12 [Compound P-0040] |  | ≥ 5.00 | ≥ 5.00 | ≥ 5.00 |  |  |
| CCCC(=O)Nc1ccc(F)c(Cc2c[nH]c3ncc(-c4cccnc4)cc23)c1F [Compound P-1280] |  |  | ≥ 5.00 | ≥ 5.00 |  | ≥ 5.00 |
| O=C(c1cccc(O)c1F)c1c[nH]c2ncc(-c3ccccc3)cc12 [Compound P-0036, (2-fluoro-3-hydroxy-phenyl)-(5-phenyl-1H-pyrrolo[2,3-b]pyridin-3-yl)-methanone] | ≥ 5.00 |  | ≥ 5.00 | ≥ 5.00 | ≥ 5.00 |  |
| O=C(O)/C=C/c1cccc(-c2cnc3[nH]cc(C(=O)c4ccccc4F)c3c2)c1 [Compound P-0033] | ≥ 5.00 | ≥ 5.00 | ≥ 5.00 | ≥ 5.00 |  |  |
| Cc1ccc(F)cc1C(=O)c1c[nH]c2ncc(-c3ccc(C(N)=O)cc3)cc12 [Compound P-0050] |  | ≥ 5.00 |  |  |  |  |
| Cc1c(O)cccc1C(=O)c1c[nH]c2ncc(Br)cc12 [Compound P-0055, (5-Bromo-1H-pyrrolo[2,3-b]pyridin-3-yl)-(3-hydroxy-2-methyl-phenyl)-methanone] | ≥ 5.00 |  |  |  | ≥ 5.00 |  |
| CCCS(=O)(=O)Nc1ccc(F)c(C(=O)c2c[nH]c3ncccc23)c1F [Compound P-0007, Propane-1-sulfonic acid [2,4-difluoro-3-(1H-pyrrolo[2,3-b]pyridine-3-carbonyl)-phenyl]-amide] |  | ≥ 5.00 |  |  | ≥ 5.00 |  |
| Cc1ccccc1C(=O)c1c[nH]c2nccc(-c3ccc(C(N)=O)cc3)c12 [Compound P-0017] | ≥ 5.00 |  |  |  |  |  |
| O=C(c1cc(O)ccc1F)c1c[nH]c2ncc(-c3ccccc3)cc12 [Compound P-0045] |  | ≥ 5.00 | ≥ 5.00 | ≥ 5.00 | ≥ 5.00 |  |
| COc1ccc(F)c(C(=O)c2c[nH]c3ncc(-c4cccnc4)cc23)c1 [Compound P-0090] | ≥ 5.00 | ≥ 5.00 | ≥ 5.00 | ≥ 5.00 | ≥ 5.00 |  |
| O=C(Nc1ccc(Cc2c[nH]c3ncccc23)cc1)Nc1cccc(C(F)(F)F)c1 [Compound P-0262, 1-[4-(1H-Pyrrolo[2,3-b]pyridin-3-ylmethyl)-phenyl]-3-(3-trifluoromethyl-phenyl)-urea] |  |  |  |  | ≥ 5.00 | ≥ 5.00 |
| O=C(c1cc(O)ccc1F)c1c[nH]c2ncccc12 [Compound P-0005] | ≥ 5.00 | ≥ 5.00 |  |  | ≥ 5.00 |  |

| Structure (SMILES) | pIC50 (Flt1) | pIC50 (Abl) | pIC50 (Jnk1) | pIC50 (Jnk3) | pIC50 (c-Raf-1) | pIC50 (Met) |
| --- | --- | --- | --- | --- | --- | --- |
| O=C(c1ccccc1F)c1c[nH]c2ncc(-c3ccsc3)cc12 [Compound P-0134] | ≥ 5.00 | ≥ 5.00 | ≥ 5.00 | ≥ 5.00 |  |  |
| O=C(c1cc(O)ccc1F)c1c[nH]c2ncc(-c3cccs3)cc12 [Compound P-0032] | ≥ 5.00 | ≥ 5.00 | ≥ 5.00 | ≥ 5.00 | ≥ 5.00 |  |
| O=C(c1cc(O)ccc1F)c1c[nH]c2ncc(Br)cc12 [Compound P-0068, (5-Bromo-1H-pyrrolo[2,3-b]pyridin-3-yl)-(2-fluoro-5-hydroxy-phenyl)-methanone] | ≥ 5.00 | ≥ 5.00 |  |  |  |  |
| Cc1ccc(S(=O)(=O)NCc2c[nH]c3nccc(-c4cccc(C#N)c4)c23)cc1 [Compound P-0072] | ≥ 5.00 | ≥ 5.00 |  |  |  |  |
| O=C(O)/C=C/c1cccc(-c2cnc3[nH]cc(C(=O)c4cc(O)ccc4F)c3c2)c1 [Compound P-0010] |  | ≥ 5.00 | ≥ 5.00 | ≥ 5.00 | ≥ 5.00 |  |
| O=C(c1cccc(O)c1)c1c[nH]c2ncc(-c3cccnc3)cc12 [Compound P-0048] |  | ≥ 5.00 |  |  |  |  |
| CCCS(=O)(=O)Nc1ccc(F)c(C(=O)c2c[nH]c3ncc(OC)cc23)c1F [Compound P-0806, Propane-1-sulfonic acid [2,4-difluoro-3-(5-methoxy-1H-pyrrolo[2,3-b]pyridine-3-carbonyl)-phenyl]-amide] |  | ≥ 5.00 |  |  | ≥ 5.00 |  |
| CS(=O)(=O)c1cccc(-c2cnc3[nH]cc(C(=O)c4c(F)ccc(F)c4F)c3c2)c1 [Compound P-0102, [5-(3-Methanesulfonyl-phenyl)-1H-pyrrolo[2,3-b]pyridin-3-yl]-(2,3,6-trifluoro-phenyl)-methanone] |  |  | ≥ 5.00 | ≥ 5.00 | ≥ 5.00 |  |
| COc1cc(OC)cc(C(=O)c2c[nH]c3ncc(-c4cccc(NS(C)(=O)=O)c4)cc23)c1 [Compound P-1426, N-{3-[3-(3,5-Dimethoxy-benzoyl)-1H-pyrrolo[2,3-b]pyridin-5-yl]-phenyl}-methanesulfonamide] | ≥ 5.00 | ≥ 5.00 |  |  |  |  |
| CN(C)S(=O)(=O)Nc1ccc(F)c(Cc2c[nH]c3ncc(-c4cccnc4)cc23)c1F [Compound P-0166] | ≥ 5.00 |  |  | ≥ 5.00 | ≥ 5.00 |  |
| Oc1cccc(Cc2c[nH]c3ncc(-c4ccsc4)cc23)c1 [Compound P-0056] | ≥ 5.00 | ≥ 5.00 | ≥ 5.00 | ≥ 5.00 |  |  |
| COc1cccc(C(=O)c2c[nH]c3ncc(-c4cccc(NC(C)=O)c4)cc23)c1F [Compound P-1336, N-{3-[3-(2-Fluoro-3-methoxy-benzoyl)-1H-pyrrolo[2,3-b]pyridin-5-yl]-phenyl}-acetamide] |  | ≥ 5.00 | ≥ 5.00 |  | ≥ 5.00 |  |
| O=C(c1cccc(O)c1)c1c[nH]c2ncccc12 [Compound P-0011] | ≥ 5.00 | ≥ 5.00 |  |  |  |  |
| Cc1c(NS(C)(=O)=O)cccc1C(=O)c1c[nH]c2ncc(-c3ccccc3)cc12 [Compound P-0082, N-[2-Methyl-3-(5-phenyl-1H-pyrrolo[2,3-b]pyridine-3-carbonyl)-phenyl]-methanesulfonamide] | ≥ 5.00 |  | ≥ 5.00 |  | ≥ 5.00 | ≥ 5.00 |
| O=C(c1cccc(O)c1)c1c[nH]c2ncc(Nc3ccccc3)cc12 [Compound P-0025] |  | ≥ 5.00 | ≥ 5.00 | ≥ 5.00 | ≥ 5.00 |  |
| Oc1cc(O)cc(Cc2c[nH]c3ncc(-c4ccsc4)cc23)c1 [Compound P-0093] |  | ≥ 5.00 |  | ≥ 5.00 |  |  |
| O=C(c1ccc(O)cc1Cl)c1c[nH]c2ncccc12 [Compound P-0021] | ≥ 5.00 |  | ≥ 5.00 |  | ≥ 5.00 |  |

Reference: US8415469B2, “Compounds and methods for kinase modulation, and indications therefor” (Plexxikon Inc., priority 2005, dated 2013)
